Data reported in publication PMC10407959 (Journal of medicinal chemistry, 2023).
Read-outs that look alike come from different tables or passages of the source. Marks after values point to notes of the source that are not given here.

Legend:
CYP1A2 = target: T1, CYP1A2 (Homo sapiens, UniProt P05177); conditions: read-out: CYP1A2 (IC50); ref Wen et al. 5; cited from earlier work
T1 sequence (P05177 1-516): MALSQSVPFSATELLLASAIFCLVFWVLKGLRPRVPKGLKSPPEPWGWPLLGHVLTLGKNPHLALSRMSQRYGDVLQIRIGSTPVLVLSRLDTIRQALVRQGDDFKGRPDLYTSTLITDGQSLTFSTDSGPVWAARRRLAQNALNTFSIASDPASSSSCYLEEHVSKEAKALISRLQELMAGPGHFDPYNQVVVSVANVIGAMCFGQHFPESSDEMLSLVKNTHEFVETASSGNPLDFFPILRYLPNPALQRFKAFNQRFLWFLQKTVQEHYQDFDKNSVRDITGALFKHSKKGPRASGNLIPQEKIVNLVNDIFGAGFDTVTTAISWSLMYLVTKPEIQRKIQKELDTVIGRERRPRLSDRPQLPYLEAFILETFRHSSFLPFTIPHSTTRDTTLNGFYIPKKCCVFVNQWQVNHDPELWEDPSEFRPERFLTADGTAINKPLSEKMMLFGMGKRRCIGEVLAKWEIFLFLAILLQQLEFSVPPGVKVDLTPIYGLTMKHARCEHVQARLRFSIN

CYP2C9 = CYP2C9 (Homo sapiens, UniProt P11712); conditions: read-out: CYP2C9 (IC50); ref Wen et al. 5; cited from earlier work
CYP2C19 = CYP2C19 (Homo sapiens, UniProt P33261); conditions: read-out: CYP2C19 (IC50); ref Wen et al. 5; cited from earlier work
CYP2D6 = CYP2D6 (Homo sapiens, UniProt P10635); conditions: read-out: CYP2D6 (IC50); ref Wen et al. 5; cited from earlier work
CYP3A4 = CYP3A4 (Homo sapiens, UniProt P08684); conditions: read-out: CYP3A4 (IC50); ref Wen et al. 5; cited from earlier work
hERG = hERG (Homo sapiens, UniProt Q12809); conditions: read-out: hERG, IC50; fluorescent dye binding method; ref Wen et al. 5; cited from earlier work
[1] = pH 7.4, pION method, determined by Jai Research Foundation; ref Wen et al. 5; cited from earlier work
[2] = rat, 3 mg/kg, i.p.; previous data; cited from earlier work
hP2Y14R = target: T2, hP2Y14R (Homo sapiens, UniProt Q15391); experiment: cell-based
T2 sequence (Q15391 1-338): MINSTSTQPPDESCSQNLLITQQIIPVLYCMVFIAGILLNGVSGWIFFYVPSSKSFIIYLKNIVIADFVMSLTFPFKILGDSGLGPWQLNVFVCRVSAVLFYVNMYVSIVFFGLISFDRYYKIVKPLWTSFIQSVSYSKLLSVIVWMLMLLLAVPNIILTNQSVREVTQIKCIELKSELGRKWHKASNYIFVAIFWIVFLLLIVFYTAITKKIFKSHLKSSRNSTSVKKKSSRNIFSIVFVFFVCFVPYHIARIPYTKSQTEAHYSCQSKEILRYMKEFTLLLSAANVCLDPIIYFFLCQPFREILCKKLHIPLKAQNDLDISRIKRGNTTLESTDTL

[3] = ref Wen et al. 5; cited from earlier work
[4] = ref Wen et al. 5; cited from earlier work; remark: listed apart in the source
[5] = rat (r), ref Wen et al. 5; cited from earlier work
[6] = mouse (m), ref Wen et al. 5; cited from earlier work

Chain of hERG (Q12809 whole entry): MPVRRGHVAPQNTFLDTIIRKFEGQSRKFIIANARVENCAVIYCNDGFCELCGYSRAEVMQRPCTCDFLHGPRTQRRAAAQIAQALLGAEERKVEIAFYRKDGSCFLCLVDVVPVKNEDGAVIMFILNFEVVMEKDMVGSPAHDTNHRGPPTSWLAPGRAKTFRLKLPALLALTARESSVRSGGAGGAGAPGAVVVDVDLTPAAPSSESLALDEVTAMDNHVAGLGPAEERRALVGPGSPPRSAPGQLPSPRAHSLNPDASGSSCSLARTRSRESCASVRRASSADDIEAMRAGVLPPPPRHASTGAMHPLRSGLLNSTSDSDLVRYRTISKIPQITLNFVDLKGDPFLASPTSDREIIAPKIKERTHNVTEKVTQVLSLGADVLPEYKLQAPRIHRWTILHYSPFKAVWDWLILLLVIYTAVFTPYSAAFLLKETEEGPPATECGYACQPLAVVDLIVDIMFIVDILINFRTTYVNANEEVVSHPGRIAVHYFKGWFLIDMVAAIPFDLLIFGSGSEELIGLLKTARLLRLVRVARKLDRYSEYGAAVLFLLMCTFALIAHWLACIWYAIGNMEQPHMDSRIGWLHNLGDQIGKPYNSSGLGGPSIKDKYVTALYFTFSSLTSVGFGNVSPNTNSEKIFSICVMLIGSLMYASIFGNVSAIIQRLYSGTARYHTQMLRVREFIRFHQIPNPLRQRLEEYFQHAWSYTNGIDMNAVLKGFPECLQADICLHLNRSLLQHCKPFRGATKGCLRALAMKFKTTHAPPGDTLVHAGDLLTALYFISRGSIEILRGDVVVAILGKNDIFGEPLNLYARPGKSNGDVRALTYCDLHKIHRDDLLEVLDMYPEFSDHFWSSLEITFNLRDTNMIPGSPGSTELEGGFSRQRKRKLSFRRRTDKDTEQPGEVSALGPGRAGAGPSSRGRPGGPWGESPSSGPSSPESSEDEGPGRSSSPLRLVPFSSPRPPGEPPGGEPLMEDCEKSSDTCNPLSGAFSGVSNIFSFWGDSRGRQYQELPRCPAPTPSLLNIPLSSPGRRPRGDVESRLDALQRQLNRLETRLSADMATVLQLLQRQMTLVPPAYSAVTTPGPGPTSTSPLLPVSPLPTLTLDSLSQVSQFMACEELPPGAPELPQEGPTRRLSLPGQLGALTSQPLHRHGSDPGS
Chain of CYP2C19 (P33261 whole entry): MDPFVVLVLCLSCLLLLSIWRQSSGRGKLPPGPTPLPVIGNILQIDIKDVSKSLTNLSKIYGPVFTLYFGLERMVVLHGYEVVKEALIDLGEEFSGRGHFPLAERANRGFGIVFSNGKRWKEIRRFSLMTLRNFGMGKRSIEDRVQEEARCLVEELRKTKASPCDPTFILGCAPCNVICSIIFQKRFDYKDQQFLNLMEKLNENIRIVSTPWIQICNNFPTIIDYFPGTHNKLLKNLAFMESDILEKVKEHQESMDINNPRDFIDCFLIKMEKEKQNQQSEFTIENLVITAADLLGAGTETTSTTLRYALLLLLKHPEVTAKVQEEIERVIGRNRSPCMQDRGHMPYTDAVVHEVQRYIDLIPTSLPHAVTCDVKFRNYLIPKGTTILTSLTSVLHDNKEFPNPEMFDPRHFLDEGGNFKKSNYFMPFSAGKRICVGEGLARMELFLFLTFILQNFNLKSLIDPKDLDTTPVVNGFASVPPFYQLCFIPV
Chain of CYP2C9 (P11712 whole entry): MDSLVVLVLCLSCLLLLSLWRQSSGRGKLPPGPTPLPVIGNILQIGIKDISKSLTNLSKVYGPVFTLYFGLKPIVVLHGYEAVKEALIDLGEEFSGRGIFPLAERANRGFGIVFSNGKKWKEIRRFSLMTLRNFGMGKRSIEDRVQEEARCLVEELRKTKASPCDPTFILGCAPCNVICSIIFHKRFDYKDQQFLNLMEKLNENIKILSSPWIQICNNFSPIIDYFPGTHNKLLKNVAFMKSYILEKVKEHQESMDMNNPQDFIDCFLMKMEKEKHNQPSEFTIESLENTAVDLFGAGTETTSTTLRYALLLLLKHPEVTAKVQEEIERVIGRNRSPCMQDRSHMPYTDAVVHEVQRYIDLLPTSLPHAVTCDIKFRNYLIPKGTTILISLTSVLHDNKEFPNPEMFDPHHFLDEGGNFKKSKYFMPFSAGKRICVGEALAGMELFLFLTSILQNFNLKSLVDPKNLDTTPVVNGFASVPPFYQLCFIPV
Chain of CYP2D6 (P10635 whole entry): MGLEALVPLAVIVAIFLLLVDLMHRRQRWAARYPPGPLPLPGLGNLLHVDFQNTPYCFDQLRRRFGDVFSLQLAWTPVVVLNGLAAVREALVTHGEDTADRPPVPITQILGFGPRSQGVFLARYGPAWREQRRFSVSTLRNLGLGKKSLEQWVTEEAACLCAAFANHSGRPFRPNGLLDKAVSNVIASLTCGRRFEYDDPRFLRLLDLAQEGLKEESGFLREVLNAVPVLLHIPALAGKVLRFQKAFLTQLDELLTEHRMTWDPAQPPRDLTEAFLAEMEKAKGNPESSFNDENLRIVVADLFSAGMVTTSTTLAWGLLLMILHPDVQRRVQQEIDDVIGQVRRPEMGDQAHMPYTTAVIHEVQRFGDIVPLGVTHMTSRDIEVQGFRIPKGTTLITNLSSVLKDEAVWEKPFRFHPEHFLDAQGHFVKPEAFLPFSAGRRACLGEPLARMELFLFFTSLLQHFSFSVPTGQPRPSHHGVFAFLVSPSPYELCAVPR
Chain of CYP3A4 (P08684 whole entry): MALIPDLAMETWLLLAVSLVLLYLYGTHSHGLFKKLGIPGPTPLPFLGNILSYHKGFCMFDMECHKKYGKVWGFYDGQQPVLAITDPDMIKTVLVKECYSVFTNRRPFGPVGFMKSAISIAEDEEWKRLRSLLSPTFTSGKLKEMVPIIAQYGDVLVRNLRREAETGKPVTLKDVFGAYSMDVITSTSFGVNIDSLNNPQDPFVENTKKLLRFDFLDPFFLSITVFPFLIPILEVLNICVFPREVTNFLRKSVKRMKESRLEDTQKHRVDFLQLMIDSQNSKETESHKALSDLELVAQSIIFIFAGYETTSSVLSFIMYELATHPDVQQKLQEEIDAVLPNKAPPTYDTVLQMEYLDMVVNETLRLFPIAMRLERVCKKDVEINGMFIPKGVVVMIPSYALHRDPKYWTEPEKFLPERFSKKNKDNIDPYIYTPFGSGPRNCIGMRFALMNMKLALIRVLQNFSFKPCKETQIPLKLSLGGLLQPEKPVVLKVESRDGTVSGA

Compound: O=C(O)c1cc(-c2ccc([C@H]3C[C@H]4C[C@@H]3CN4)cc2)c2ccc(-c3ccc(C(F)(F)F)cc3)cc2c1 [2b, 4-(4-((1S,4S,5S)-2-Azabicyclo[2.2.1]heptan-5-yl)phenyl)-7-(4-(trifluoromethyl)phenyl)-2-naphthoic Acid]
- IC50 (CYP1A2): > 30 µM
- IC50 (CYP2C9): > 30 µM
- IC50 (CYP2C19): > 30 µM
- IC50 (CYP2D6): > 30 µM
- IC50 (CYP3A4): > 30 µM
- IC50 (hERG): > 30 µM
- solubility, (μg/mL) [1]: 1.90 (pH 7.4)^d μg/mL
- bioavailability [2]: 43 %F
- Ki (hP2Y14R): 0.00181 µM
- simulated intestinal fluid (% remaining at 120 min) [3]: 99.1%
- simulated gastric fluid (% remaining at 120 min) [4]: 100^a %
- plasma stability (% remaining at 120 min) [5]: 82.8%
- plasma stability (% remaining at 120 min) [6]: 100%
